Experimental data reported in patent US8071763B2, “Methods for treatment of nocturia” (Daiichi Sankyo Company, Limited, priority 2002, dated 2011).
Marks after values point to notes of the source that are not given here.

Test system: patients with nocturia
Test: Non-randomized trial treatment with loxoprofen in patients with nocturia; voids/night outcome assessed as excellent, improved, unchanged or worsened
Format: in vivo, human
Protocol: One hundred forty one patients (135 men) aged 49 to 89 (mean 70.5) years with LUTS and =2 voids per night were enrolled in the study. Their main diseases were BPH (n=93), prostate cancer (n=24) and neurogenic bladder (NB) (n=13); 11 had other diseases. […] Patients who had asthma, gastrointestinal disorders, renal dysfunction and allergies to loxoprofen were excluded. Patients took a single 60 mg loxoprofen tablet prior to sleeping at night for 4 to 14 days initially concurrently with their treatments for their main diseases. Numbers of voids/night as reported by each patient were evaluated and treatment outcome was assessed as either excellent (nocturia disappeared or decreased by =2 voids/night), improved (nocturia decreased by 1 void/night), unchanged or worsened (nocturia increased).

[1] = 60 mg prior to sleeping, Prostate cancer, post-radiation, 4 patients
[2] = 60 mg prior to sleeping, Prostatodynia, 5 patients
[3] = 60 mg prior to sleeping, Urinary frequency with UUI, 10 patients
[4] = 60 mg prior to sleeping, Urinary frequency without UUI, 9 patients
[5] = 60 mg prior to sleeping, aged 49 to 59 years
[6] = 60 mg prior to sleeping, aged 60 to 69 years
[7] = 60 mg prior to sleeping, aged 70 to 79 years
[8] = 60 mg prior to sleeping, aged 80 to 86 years
[9] = 60 mg prior to sleeping, frequency at baseline 2 and 2-3, 56 patients
[10] = 60 mg prior to sleeping, frequency at baseline 3-4, 59 patients
[11] = 60 mg prior to sleeping, frequency at baseline 4-5, 15 patients
[12] = 60 mg prior to sleeping, frequency at baseline >5, 11 patients
[13] = 60 mg prior to sleeping, non-responders to Anticholinergics, 32 patients
[14] = 60 mg prior to sleeping, non-responders to Hypnotics, 42 patients
[15] = 60 mg prior to sleeping, non-responders to TCA (tricyclic antidepressants), 76 patients

Effect on voiding power (patients with BOO): does not decrease voiding power
SMILES: CC(C(=O)O)c1ccc(CC2CCCC2=O)cc1 (stereo not shown) [loxoprofen, loxoprofen sodium]
Unchanged, no. of patients (60 mg prior to sleeping, Prostate cancer, post-prostatectomy (radical), 5 patients): 2^
Excellent, no. of patients [1]: 1^
Improved, no. of patients [1]: 3^
Excellent, % of patients [2]: (20%)
Excellent, no. of patients [2]: 1^
Improved, % of patients [2]: (40%)
Improved, no. of patients [2]: 2^
Unchanged, % of patients [2]: (20%)
Unchanged, no. of patients [2]: 1^
Worsened, % of patients [2]: (20%)
Worsened, no. of patients [2]: 1
Worsened, no. of patients (60 mg prior to sleeping, Total 141): 6
Excellent, % of patients [3]: (20%)
Excellent, no. of patients [3]: 2^
Improved, % of patients [3]: (50%)
Improved, no. of patients [3]: 5^†
Unchanged, % of patients [3]: (30%)
Unchanged, no. of patients [3]: 3^¶
Excellent, % of patients (60 mg prior to sleeping, Urinary frequency with UUI, 10 patients, listed as Loxoprofen): 20%
Excellent, % of patients [4]: (44%)
Excellent, no. of patients [4]: 4^¶
Improved, % of patients [4]: (22%)
Improved, no. of patients [4]: 2^
Unchanged, % of patients [4]: (22%)
Unchanged, no. of patients [4]: 2^¶
Worsened, % of patients [4]: (11%)
Worsened, no. of patients [4]: 1
Excellent, % of patients (60 mg prior to sleeping, Urinary frequency without UUI, 9 patients, listed as Loxoprofen): 44%
Excellent responses, % of patients [5]: 50%
Excellent responses, patients/group size [5]: 4/8
Excellent responses, % of patients [6]: 40%
Excellent responses, patients/group size [6]: 17/43
Excellent responses, % of patients [7]: 35%
Excellent responses, patients/group size [7]: 23/65
Excellent responses, % of patients [8]: 28%
Excellent responses, patients/group size [8]: 7/25
Excellent, % of patients [9]: (21%)
Excellent, no. of patients [9]: 12*^
Improved, % of patients [9]: (41%)
Improved, no. of patients [9]: 23^†
Unchanged, % of patients [9]: (34%)
Unchanged, no. of patients [9]: 19^†
Worsened, % of patients [9]: (4%)
Worsened, no. of patients [9]: 2
Excellent, % of patients (60 mg prior to sleeping, frequency at baseline 2 and 2-3, 56 patients, listed as Loxoprofen): 21%
Excellent, % of patients [10]: (47%)
Excellent, no. of patients [10]: 28^†
Improved, % of patients [10]: (31%)
Improved, no. of patients [10]: 18^†
Unchanged, % of patients [10]: (17%)
Unchanged, no. of patients [10]: 10^†
Worsened, % of patients [10]: (5%)
Worsened, no. of patients [10]: 3
Excellent, % of patients [11]: (40%)
Excellent, no. of patients [11]: 6^
Improved, % of patients [11]: (40%)
Improved, no. of patients [11]: 6^
Unchanged, % of patients [11]: (20%)
Unchanged, no. of patients [11]: 3^
Excellent, % of patients [12]: (45%)
Excellent, no. of patients [12]: 5^†
Improved, % of patients [12]: (27%)
Improved, no. of patients [12]: 3^
Unchanged, % of patients [12]: (18%)
Unchanged, no. of patients [12]: 2^
Worsened, % of patients [12]: (5%)
Worsened, no. of patients [12]: 1
Excellent, % of patients [13]: (44%)
Excellent, no. of patients [13]: 14
Improved, % of patients [13]: (38%)
Improved, no. of patients [13]: 12
Unchanged, % of patients [13]: 19%
Unchanged, no. of patients [13]: 6
Worsened, % of patients [13]: 3%
Worsened, no. of patients [13]: 1
Excellent, no. of patients [14]: 13
Improved, no. of patients [14]: 16
Unchanged, % of patients [14]: 26%
Unchanged, no. of patients [14]: 11
Worsened, % of patients [14]: 5%
Worsened, no. of patients [14]: 2
Excellent, % of patients [15]: (39%)
Excellent, no. of patients [15]: 30
Improved, % of patients [15]: (37%)
Improved, no. of patients [15]: 28
Unchanged, % of patients [15]: 22%
Unchanged, no. of patients [15]: 17
Worsened, % of patients [15]: 5%
Worsened, no. of patients [15]: 4
Excellent effects, patients (60 mg prior to sleeping, patients who previously responded or were refractory to antidiuretic hormone): one of nine patients
Side effects such as dry mouth, constipation and habituation (human, in vivo): does not produce side effects
Quality of life (patients whose nocturia improved): noticeable improvements in their quality of life
Time to first voiding (some patients of the unchanged group): delayed by several hours
